Test results: patent publication US10370352B2, “Cyclobutyl-imidazolidinone compounds” (Eli Lilly and Company, priority 2017, dated 2019)

Key:
[1] = target: recombinant human ASK1 (hASK1) catalytic domain (Homo sapiens (Human), UniProt Q99683); assay: ASK1 enzymatic assay (ADP-Glo Kinase Assay); assay type: biochemical; settings: for IC50: hASK1 0.25 nM, MKK6 300 nM, ATP 100 μM, mean ± standard deviation; for Efficacy: hASK1 enzymatic assay, standard benzamide ASK1 inhibitor = 100% inhibition, DMSO = 0%
Sequence of recombinant human ASK1 (hASK1) catalytic domain (Q99683 680-938): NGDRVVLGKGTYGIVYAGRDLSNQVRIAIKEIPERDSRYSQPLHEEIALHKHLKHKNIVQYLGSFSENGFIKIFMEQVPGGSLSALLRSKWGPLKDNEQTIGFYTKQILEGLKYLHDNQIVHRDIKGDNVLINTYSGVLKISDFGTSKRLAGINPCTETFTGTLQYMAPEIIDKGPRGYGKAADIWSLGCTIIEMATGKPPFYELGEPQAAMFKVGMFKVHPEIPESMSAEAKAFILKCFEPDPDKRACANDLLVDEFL
From the text: The purpose of this assay is to determine the effect of ASK1 inhibitors on the production of ADP by ASK1. The recombinant human ASK1 (hASK1) catalytic domain tagged with Glutathione S-transferase is used, and histidine-tagged full-length human MAP kinase kinase 6 (MKK6) and ATP are the substrate and cofactor, respectively.
The assay is done using an ADP-Glo™ Kinase Assay Kit (Promega, Catalog #V9102) according to the manufacturer's protocol with the following modifications. Briefly, hASK1 (0.25 nM) and MKK6 (300 nM) in a buffer (10 mM MOPS pH 7.0; 10 mM Mg-Acetate; 1 mM DTT; 0.025% NP-40; 0.05% BSA; 1.5% glycerol) are incubated with ASK1 inhibitors at varying concentrations ranging from 10.00 μM to 0.17 nM for 15 minutes, followed by incubation with ATP (100 μM) for 30 minutes at room temperature. ADP-Glo™ Reagent is added to terminate the kinase reaction and deplete the remaining ATP. The Kinase Detection Reagent is then added to convert ADP to ATP. The newly synthesized ATP is measured using a luciferase/luciferin reaction, and the luminescence determined by Envision (PerkinElmer). The luminescence intensities are analyzed by GeneData, and fit to a 4 parameter dose response-inhibitor logistics curve to determine IC50 values, using the effects of 5-(4-cyclopropyl-1H-imidazol-1-yl)-2-fluoro-4-methyl-N-{6-[4-(propan-2-yl)-4H-1,2,4-triazol-3-yl]pyridin-2-yl}benzamide as a standard and DMSO vehicle for 100% and 0% inhibition, respectively.

human ASK1 = human ASK1 (Homo sapiens (Human), UniProt Q99683); assay: ASK1 autophosphorylation (Thr838) assay in HEK293 cells overexpressing human ASK1; assay type: cell-based; settings: for IC50: H2O2-stimulated (1 mM, 10 min) ASK1 autophosphorylation at Thr838, HEK293 cells, HTRF, mean ± standard deviation, read-out: HEK pASK1 IC50; for Efficacy: HEK pASK1 assay, standard benzamide ASK1 inhibitor = 100% inhibition, DMSO = 0%
Sequence of human ASK1 (Q99683 whole entry): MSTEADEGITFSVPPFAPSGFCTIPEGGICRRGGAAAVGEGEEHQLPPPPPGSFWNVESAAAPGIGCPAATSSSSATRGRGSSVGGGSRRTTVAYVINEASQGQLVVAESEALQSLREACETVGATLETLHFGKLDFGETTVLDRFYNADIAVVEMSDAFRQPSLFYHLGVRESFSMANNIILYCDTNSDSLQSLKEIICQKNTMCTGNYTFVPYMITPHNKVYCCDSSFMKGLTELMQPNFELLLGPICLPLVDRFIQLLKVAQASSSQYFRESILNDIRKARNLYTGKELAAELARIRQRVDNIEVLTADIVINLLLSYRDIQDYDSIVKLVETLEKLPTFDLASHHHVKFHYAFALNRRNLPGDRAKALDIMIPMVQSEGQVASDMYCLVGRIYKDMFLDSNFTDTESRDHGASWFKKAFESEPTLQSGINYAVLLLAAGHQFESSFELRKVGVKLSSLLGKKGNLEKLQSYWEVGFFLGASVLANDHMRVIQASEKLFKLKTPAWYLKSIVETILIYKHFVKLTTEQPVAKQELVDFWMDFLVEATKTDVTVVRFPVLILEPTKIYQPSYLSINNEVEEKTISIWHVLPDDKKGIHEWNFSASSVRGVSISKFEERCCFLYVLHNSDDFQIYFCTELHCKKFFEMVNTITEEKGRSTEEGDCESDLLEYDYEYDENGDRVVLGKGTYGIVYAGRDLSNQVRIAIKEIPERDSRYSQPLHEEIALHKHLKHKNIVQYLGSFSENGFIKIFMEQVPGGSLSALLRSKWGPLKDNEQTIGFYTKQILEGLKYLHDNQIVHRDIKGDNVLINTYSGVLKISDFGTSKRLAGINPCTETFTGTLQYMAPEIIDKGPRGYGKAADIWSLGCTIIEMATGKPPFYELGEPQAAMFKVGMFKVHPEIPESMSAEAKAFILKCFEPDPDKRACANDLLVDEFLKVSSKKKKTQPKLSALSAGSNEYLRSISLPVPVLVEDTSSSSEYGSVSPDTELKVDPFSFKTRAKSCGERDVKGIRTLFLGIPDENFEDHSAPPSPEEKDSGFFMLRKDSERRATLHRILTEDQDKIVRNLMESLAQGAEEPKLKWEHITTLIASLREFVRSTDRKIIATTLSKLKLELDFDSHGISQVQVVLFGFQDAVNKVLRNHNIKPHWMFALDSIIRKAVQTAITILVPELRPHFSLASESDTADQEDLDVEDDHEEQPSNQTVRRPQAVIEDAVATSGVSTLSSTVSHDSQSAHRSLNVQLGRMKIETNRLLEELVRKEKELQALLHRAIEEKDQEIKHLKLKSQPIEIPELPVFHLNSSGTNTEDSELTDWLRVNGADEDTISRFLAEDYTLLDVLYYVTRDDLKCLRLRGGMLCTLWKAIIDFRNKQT

| SMILES | IC50 [1] | Efficacy [1] | IC50 (human ASK1) | Efficacy (human ASK1) |
| --- | --- | --- | --- | --- |
| CC(C)n1cnnc1-c1cccc(N2CCN(C3CC(n4cnc(C(F)(F)F)c4)C3)C2=O)n1 (stereo not drawn) [Example 3, 1-(6-(4-Isopropyl-4H-1,2,4-triazol-3-yl)pyridin-2-yl)-3-(3-(4-(trifluoromethyl)-1H-imidazol-1-yl)cyclobutyl)imidazolidin-2-one] | 2.8 ± 0.97 nM | 100% | 126 nM | 98.5% |
| CC(C)n1cnnc1-c1cccc(N2CCN(C3CC(n4cnc(C5CC5)n4)C3)C2=O)n1 (stereo not drawn) [Example 4, 1-[3-(3-Cyclopropyl-1,2,4-triazol-1-yl)cyclobutyl]-3-[6-(4-isopropyl-1,2,4-triazol-3-yl)-2-pyridyl]imidazolidin-2-one] | 2.56 ± 0.68 nM | 100% | 108 nM | 99% |
| CC(C)n1cnnc1-c1cccc(N2CCN(C3CC(n4cnc(C5CC5)c4)C3)C2=O)n1 (single isomer, unassigned) [Example 2, 1-[3-(4-Cyclopropylimidazol-1-yl)cyclobutyl]-3-[6-(4-isopropyl-1,2,4-triazol-3-yl)-2-pyridyl]imidazolidin-2-one] | 1.47 ± 0.6 nM | 100% | 48.8 ± 19.1 nM | 105% |
| CC(C)n1cc(C2CC(N3CCN(c4cccc(-c5nncn5C(C)C)n4)C3=O)C2)cn1 (stereo not drawn) [Example 6, 1-[3-(1-Isopropylpyrazol-4-yl)cyclobutyl]-3-[6-(4-isopropyl-1,2,4-triazol-3-yl)-2-pyridyl]imidazolidin-2-one] | 2.17 ± 0.45 nM | 100% | 27.1 nM | 102% |

Results, then the compound that gave them:

| IC50 [1] | Efficacy [1] | IC50 (human ASK1) | Efficacy (human ASK1) | SMILES |
| --- | --- | --- | --- | --- |
| 6.21 ± 4.18 nM | 100% |  |  | Cc1ncc(C2CC(N3CCN(c4cccc(-c5nncn5C(C)C)n4)C3=O)C2)cn1 (single isomer, unassigned) [Example 9, 1-(6-(4-Isopropyl-4H-1,2,4-triazol-3-yl)pyridin-2-yl)-3-(3-(2-methylpyrimidin-5-yl)cyclobutyl)imidazolidin-2-one] |
| 1.84 ± 0.64 nM | 100% |  |  | CC(C)n1cnnc1-c1cccc(N2CCN(C3CC(n4cnc(C(C)(C)C)c4)C3)C2=O)n1 (stereo not drawn) [Example 5, 1-(3-(4-(tert-Butyl)-1H-imidazol-1-yl)cyclobutyl)-3-(6-(4-isopropyl-4H-1,2,4-triazol-3-yl)pyridin-2-yl)imidazolidin-2-one] |
| 5.26 ± 0.72 nM | 100% | 235 nM | 97.5% | Cc1ccc(C2CC(N3CCN(c4cccc(-c5nncn5C(C)C)n4)C3=O)C2)cn1 (single isomer, unassigned) [Example 8, 1-[6-(4-Isopropyl-1,2,4-triazol-3-yl)-2-pyridyl]-3-[3-(6-methyl-3-pyridyl)cyclobutyl]imidazolidin-2-one] |
